The results in this text go back to patent publication US20240245677A1, “SELECTED COMPOUNDS FOR TARGETED DEGRADATION OF BRD9” (C4 THERAPEUTICS, INC., priority 2021, published 2024).

Data set [1] is described as follows: Mouse Hepatocyte Stability Assay. Conditions: CD-1, cryopreserved hepatocytes. The data set is classed as in vitro ADME. As to the method: The metabolic stability of Compound 1 was evaluated using cryopreserved hepatocytes from mice, rats, dogs, cynomolgus monkeys, and humans.
50 μL of 1 mM intermediate solutions for each test compound was prepared by adding 5 μL of 10 mM stock solution to 45 μL of a 1:1 mixture of water and acetonitrile. A 2 μM working stocks for each test compound were prepared in incubation media, InvitroGRO™ KHB (Bio IVT, Westbury, NY, USA), by adding 2 μL of 1 mM intermediate stock to 998 μL of incubation media.
To thaw the hepatocytes, InvitroGRO™ HT thawing medium (BioIVT, Westbury, NY, USA) was prewarmed to 37° C., and 48 mL of warmed thawing medium was transferred to a sterile 50 mL conical tube. The hepatocyte vial was removed from the liquid nitrogen Dewar, and gently thawed in a water bath at 37° C. for 1-2 minutes, then the contents of the vial were emptied into a conical tube with prewarmed InvitroGRO HT medium. 1 mL of prewarmed InvitroGRO HT medium was added to each emptied hepatocyte vial to resuspend any remaining cells, and the contents were pipetted into the hepatocyte suspension. The tube containing the hepatocyte suspension was centrifuged at 50*g for 5 minutes. The supernatant was removed carefully, and the remaining pellet was resuspended by adding 1 mL of incubation media, InvitroGRO KHB, and gently shaking until there were no clumps.
Cell viability was determined using the trypan blue method. 25 μL of hepatocyte cell suspension was added to a trypan blue (TB) solution (containing 775 μL InvitroGRO KHB and 200 μL of Trypan Blue). Cell count was taken using a hemacytometer.
For mouse hepatocytes, 200 μL of hepatocytes (0.8×10^6 cells/mL) were added to the wells of a 48 well plate (Catalog No. 92048, TPP Techno Plastic Products AG, Trasadingen, Switzerland) and pre-incubated for 30 minutes at 37° C. For rat, dog, monkey, […], 200 μL of hepatocytes (2×10^6 cells/mL) were added to the wells of a 48 well plate (Catalog No. 92048, TPP Techno Plastic Products AG, Trasadingen, Switzerland) and pre-incubated for 30 minutes at 37° C.
For all species of hepatocytes, once the pre-incubation period was complete, 200 μL of 2 μM working stock of test compound was added to the wells of the plate, and the plate was vortexed on a Vibramax™ 100 (P/N 544-21200-00, Heidolph Instruments GmbH & Co. KG, Schwabach, Germany) at 500 rpm in a 37° C. CO2 incubator (Model No. 51026280, ThermoFisher Scientific, Waltham, MA, USA). At each time point of 0, 15, 30, 60, 90, and 120 minutes, 50 μL of incubation mixture was precipitated with 200 μL of acetonitrile containing internal standard.
At the end of the experiment, the samples were centrifuged at 4000 rpm for 10 minutes. The supernatant was collected and diluted with an equal amount of water, and vortexed for 5 minutes at 900 rpm in MixMate® (Model No. 5353, Eppendorf SE, Hamburg, Germany).
The supernatant samples were submitted for LC-MS/MS analysis.
Calculations of the results included the following: […]

Data set [2] in a line: Bulk stability study (1 week stress conditions; drying). Conditions: for physical and chemical stability: 25° C./92% RH open vial, 40° C./75% RH open vial or 60° C. closed vial, 1 week.
The nature of data set [3]: Compression and ball-milling experiments. Type of data set: physicochemical. Conditions: for behavior under ball milling: ball milling for 5 min; for behavior under compression: 2 to 10 MPa. As to the method:
Feasibility of formulation processes was evaluated with compression and ball-milling experiments. […] However, the hydrate Form N is sensitive to pressure.

Data set [4] in a line: Hygroscopicity by DVS at 25° C. Conditions: DVS 25° C. The data set is classed as physicochemical. The method, then: Hygroscopicity of Form A and Form N was investigated by DVS at 25° C. […] Form A converted to Form K after the DVS test. Form K is a metastable hydrate. It reverted back to Form A after exposure to ambient condition.
Hygroscopicity of the free base Pattern A* and the urea cocrystal Form P were evaluated by DVS at 25° C.

Data set [5] in a line: Variable humidity XRPD (VH-XRPD) experiments. Type of data set: physicochemical. Conditions: listed as Pattern N. As to the method: Based on DVS results, variable humidity XRPD was conducted for Pattern A at different humidity conditions, including 40%, 70%, 90%, 70%, 40%, 20%, 0%, 40% RH conditions.
Based on DVS results, variable humidity XRPD was conducted for Pattern N, at different humidity conditions, including 40%, 70%, 90%, 70%, 40%, 20%, 0%, 40% RH conditions.

Data set [6] is described as follows: Competitive equilibration experiment at 25° C. The data set is classed as physicochemical. Conditions: 7 days. As to the method: Competitive equilibration experiments were conducted at 25° C. to investigate the thermodynamically stable anhydrate. 5 mg of Pattern G, and 5 mg of Pattern H, were added to about 200 μL of saturated solution in selected solvents. Obtained suspension was stirred at 25° C. for 7 days. Obtained suspensions were centrifuged and obtained solids were analyzed by XRPD immediately.

SMILES strings stand for the structures.

In data set [1], `CC(C)NCC(O)COc1cccc2ccccc12` (stereo not shown) [Propranolol, reference compound] registered a half-life at 1 µM of 16.3 min.
As to `COc1cc(-c2cn(C)c(=O)c(C)c2C)cc(OC)c1CN1CC[C@H](N2CCN(c3ccc(N[C@H]4CCC(=O)NC4=O)cc3F)CC2)C(F)(F)C1` [Form A], in data set [2], the “physical and chemical stability” value is “physically and chemically stable”. In addition, in data set [3], the “behavior under ball milling” value was “no obvious crystallinity decrease”; the behavior under compression result is “no form change and no obvious crystallinity decrease even under 10 MPa”. Further, the water uptake result in data set [4] (from 40% RH to 70% RH) is on record as “about 2.0%”.
Regarding `COc1cc(-c2cn(C)c(=O)c(C)c2C)cc(OC)c1CN1CC[C@H](N2CCN(c3ccc(N[C@H]4CCC(=O)NC4=O)cc3F)CC2)C(F)(F)C1` [Form N], the “physical and chemical stability” value in data set [2] is “physically and chemically stable”. The “form change and degradation after drying” value in data set [2] (50° C. under vacuum for 2 days) is “No form change and no degradation”. Moreover, the “behavior under ball milling” value in data set [3] is recorded as “no obvious crystallinity decrease”. Also, the behavior under compression result in data set [3] is recorded as “crystallinity decrease even compressed under 2 MPa”. Further, the XRPD result in data set [5] (0% RH) is “Pattern N”; in data set [5] (20% RH), “Pattern N”; in data set [5] (40% RH (after 90% RH, falling)) it was “Pattern N”; in data set [5] (40% RH (first step)), “Pattern N”; in data set [5] (40% RH (last step, after 0% RH)) it was “Pattern N”; in data set [5] (70% RH (after 90% RH)) it was “Pattern N”. The XRPD result in data set [5] (70% RH (humidity rising)) and in data set [5] (90% RH) was “Pattern N” each time. Further, the water uptake result in data set [4] (from 40% RH to 80% RH) is “about 1.0%”.
On to `COc1cc(-c2cn(C)c(=O)c(C)c2C)cc(OC)c1CN1CC[C@H](N2CCN(c3ccc(N[C@H]4CCC(=O)NC4=O)cc3F)CC2)C(F)(F)C1` [Pattern G and Pattern H], for which the “XRPD after competitive equilibration at 25° C.” value in data set [6] (Acetone) is recorded as “Pattern B”; in data set [6] (Ethanol), “Low crystallinity, difficult to differentiate”; in data set [6] (Ethyl acetate), “Pattern F”; in data set [6] (Toluene), “Pattern G”.

What is called half-life is the time needed for the level to fall by half in the phase considered.
